Results from ChEMBL document CHEMBL1143026, “A synthetic method for diversification of the P1' substituent in phosphinic dipeptides as a tool for exploration of the specificity of the S1' binding pockets of leucine aminopeptidases” (Bioorg Med Chem, 2007).
Values joined by “and” are separate entries in the source; they are usually repeats but may differ in a detail not shown here. Identical values can stand only once. Active and inactive are the calls of the source. The rule behind the calls is not given here.

How the values were obtained:
[1] = Inhibition of pig kidney cytosolic leucine aminopeptidase; set-up: species or system Sus scrofa
[2] = Inhibition of pig kidney microsomal leucine aminopeptidase; set-up: species or system Sus scrofa
Sus scrofa = species on record: Sus scrofa; experiment: Inhibition of pig kidney microsomal leucine aminopeptidase at 10 to 20 uM

Row | Ki [1] | Ki [2] | Activity (Sus scrofa) | SMILES
1 | 4.46 µM | 0.56 µM |  | NCc1ccc(NC(CP(=O)(O)C(N)CCc2ccccc2)C(=O)O)cc1 (stereo unspecified)
2 | 4.21 µM and 1.42 µM |  | inactive | NC(CCc1ccccc1)P(=O)(O)CC(NCc1ccc(CO)cc1)C(=O)O (stereo unspecified)
3 | 10.3 µM and 6.98 µM | 0.9 µM and 1.13 µM |  | NC(CCc1ccccc1)P(=O)(O)CC(Nc1ccc(CO)cc1)C(=O)O (stereo unspecified)
4 | 10.1 µM |  |  | NC(CCc1ccccc1)P(=O)(O)CC(NCc1ccccc1)C(=O)O (stereo in doubt; 6,F1) [listing 1 of 2 here]

The remaining lines, values behind:

Row | SMILES | Ki [1] | Ki [2] | Activity (Sus scrofa)
5 | NC(CCc1ccccc1)P(=O)(O)CC(Nc1ccccc1)C(=O)O (stereo unspecified) | 0.57 µM and 0.45 µM |  | inactive
6 | NC(CCc1ccccc1)P(=O)(O)CC(NCc1ccccc1)C(=O)O (stereo in doubt; 6) | 12.4 µM | 1500 µM | 
7 | NC(CCc1ccccc1)P(=O)(O)CC(NCc1ccccc1)C(=O)O (stereo in doubt; 6,F1) [listing 2 of 2 here] |  |  | inactive
8 | NCc1ccc(CNC(CP(=O)(O)C(N)CCc2ccccc2)C(=O)O)cc1 (stereo in doubt; 8,F1) | 2.78 µM | 19.9 µM | 
9 | NCc1ccc(CNC(CP(=O)(O)C(N)CCc2ccccc2)C(=O)O)cc1 (stereo in doubt; 8,F2) | 2.62 µM | 2.66 µM | 
